Values after ≈ are worked out from the molar mass of the structure shown.
Columns and labels:
Assay in all cases: In vitro antibacterial evaluation: minimum inhibitory concentration (MIC), broth dilution method
Type in all cases: cell-based
Settings in all cases: broth dilution, 18 hours at 35° C.
Escherichia coli = tested on: Escherichia coli
Streptococcus sp. = tested on: Streptococcus sp.
Procedure, shortened: (§1)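 MIC read as lowest drug level preventing visible growth. Organisms at 5×10^5 CFU/mL were exposed to a 64-0.06 μg/mL dilution series in Muller-Hinton II […] following NCCLS broth dilution standard M7-A2.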

Enterococcus sp. = tested on: Enterococcus sp.
Procedure, shortened: as §1

Staphylococcus sp. = tested on: Staphylococcus sp.
Procedure, shortened: as §1

MIC Escherichia coli (ATCC 25922) (Escherichia coli): 16 µg/mL (≈ 14.3 µM) | MIC Escherichia coli (GC 4559) (Escherichia coli): 16 µg/mL (≈ 14.3 µM) | MIC Escherichia coli (GC 4560) (Escherichia coli): 4 µg/mL (≈ 3.58 µM) | MIC Streptococcus agalactiae (GC 4564) (Streptococcus sp.; Streptococcus agalactiae (GC 4564)): 16 µg/mL (≈ 14.3 µM) | MIC Streptococcus pneumoniae (ATCC 6301) (Streptococcus sp.; Streptococcus pneumoniae (ATCC 6301)): 16 µg/mL (≈ 14.3 µM) | MIC Streptococcus pneumoniae (GC 1894) (Streptococcus sp.; Streptococcus pneumoniae (GC 1894)): 16 µg/mL (≈ 14.3 µM) | MIC Streptococcus pneumoniae (GC 4565) (Streptococcus sp.; Streptococcus pneumoniae (GC 4565)): 32 µg/mL (≈ 28.6 µM) | MIC Streptococcus pyogenes (GC 4563) (Streptococcus sp.; Streptococcus pyogenes (GC 4563)): 4 µg/mL (≈ 3.58 µM) | MIC Streptococcus agalactiae (GC 4564) (Streptococcus sp.): 16 µg/mL (≈ 14.3 µM) | MIC Streptococcus pneumoniae (ATCC 6301) (Streptococcus sp.): 16 µg/mL (≈ 14.3 µM) | MIC Streptococcus pneumoniae (GC 1894) (Streptococcus sp.): 16 µg/mL (≈ 14.3 µM) | MIC Streptococcus pneumoniae (GC 4565) (Streptococcus sp.): 32 µg/mL (≈ 28.6 µM) | MIC Streptococcus pyogenes (GC 4563) (Streptococcus sp.): 4 µg/mL (≈ 3.58 µM) | MIC Enterococcus avium (GC 4558) (Enterococcus sp.; Enterococcus avium (GC 4558)): 8 µg/mL (≈ 7.15 µM) | MIC Enterococcus faecalis (ATCC 29212) (Enterococcus sp.; Enterococcus faecalis (ATCC 29212)): 32 µg/mL (≈ 28.6 µM) | MIC Enterococcus faecalis (GC 2242) (Enterococcus sp.; Enterococcus faecalis (GC 2242)): 16 µg/mL (≈ 14.3 µM) | MIC Enterococcus faecalis (GC 2691) (Enterococcus sp.; Enterococcus faecalis (GC 2691)): 32 µg/mL (≈ 28.6 µM) | MIC Enterococcus faecalis (GC 3059) (Enterococcus sp.; Enterococcus faecalis (GC 3059)): 32 µg/mL (≈ 28.6 µM) | MIC Enterococcus faecalis (GC 4552) (Enterococcus sp.; Enterococcus faecalis (GC 4552)): 16 µg/mL (≈ 14.3 µM) | MIC Enterococcus faecalis (GC 4553) (Enterococcus sp.; Enterococcus faecalis (GC 4553)): 16 µg/mL (≈ 14.3 µM) | MIC Enterococcus faecalis (GC 4554) (Enterococcus sp.; Enterococcus faecalis (GC 4554)): 16 µg/mL (≈ 14.3 µM) | MIC Enterococcus faecalis (GC 6189) (Enterococcus sp.; Enterococcus faecalis (GC 6189)): 16 µg/mL (≈ 14.3 µM) | MIC Enterococcus faecium (GC 2243) (Enterococcus sp.; Enterococcus faecium (GC 2243)): 16 µg/mL (≈ 14.3 µM) | MIC Enterococcus faecium (GC 4556) (Enterococcus sp.; Enterococcus faecium (GC 4556)): 32 µg/mL (≈ 28.6 µM) | MIC Enterococcus faecium (GC 4557) (Enterococcus sp.; Enterococcus faecium (GC 4557)): 4 µg/mL (≈ 3.58 µM) | MIC Enterococcus avium (GC 4558) (Enterococcus sp.): 8 µg/mL (≈ 7.15 µM) | MIC Enterococcus faecalis (ATCC 29212) (Enterococcus sp.): 32 µg/mL (≈ 28.6 µM) | MIC Enterococcus faecalis (GC 2242) (Enterococcus sp.): 16 µg/mL (≈ 14.3 µM) | MIC Enterococcus faecalis (GC 2691) (Enterococcus sp.): 32 µg/mL (≈ 28.6 µM) | MIC Enterococcus faecalis (GC 3059) (Enterococcus sp.): 32 µg/mL (≈ 28.6 µM) | MIC Enterococcus faecalis (GC 4552) (Enterococcus sp.): 16 µg/mL (≈ 14.3 µM) | MIC Enterococcus faecalis (GC 4553) (Enterococcus sp.): 16 µg/mL (≈ 14.3 µM) | MIC Enterococcus faecalis (GC 4554) (Enterococcus sp.): 16 µg/mL (≈ 14.3 µM) | MIC Enterococcus faecalis (GC 6189) (Enterococcus sp.): 16 µg/mL (≈ 14.3 µM) | MIC Enterococcus faecium (GC 2243) (Enterococcus sp.): 16 µg/mL (≈ 14.3 µM) | MIC Enterococcus faecium (GC 4556) (Enterococcus sp.): 32 µg/mL (≈ 28.6 µM) | MIC Enterococcus faecium (GC 4557) (Enterococcus sp.): 4 µg/mL (≈ 3.58 µM) | MIC Coagulase Negative Staphylococcus (GC 4547) (Staphylococcus sp.): 4 µg/mL (≈ 3.58 µM) | MIC Coagulase Negative Staphylococcus (GC 4548) (Staphylococcus sp.): 8 µg/mL (≈ 7.15 µM) | MIC Coagulase Negative Staphylococcus (GC 4549) (Staphylococcus sp.): 4 µg/mL (≈ 3.58 µM) | MIC Coagulase Negative Staphylococcus (GC 4551) (Staphylococcus sp.): 8 µg/mL (≈ 7.15 µM) | MIC Coagulase Negative Staphylococcus (GC 6257) (Staphylococcus sp.): 4 µg/mL (≈ 3.58 µM) | MIC Staphylococcus aureus SMITH (GC 4543) (Staphylococcus sp.): 8 µg/mL (≈ 7.15 µM) | MIC Staphylococcus aureus-SMITH (GC 4543) (Staphylococcus sp.; strain SMITH GC 4543): 8 µg/mL (≈ 7.15 µM)
SMILES: CC(c1ccccc1)C1NC(=O)CNC(=O)C(CO)NC(=O)C(C(O)C2CNC(=N)N2C2OC(CO)C(O)C(O)C2O)NC(=O)C(C(O)C2CNC(=N)N2)NC(=O)C(Cc2ccc3oc(SCc4ccccc4)nc3c2)NC1=O (stereo not drawn) [Example 45, Cyclo[3-[2-(benzylthio)-1,3-benzoxazol-5-yl]alanyl-3-(2-iminoimidazolidin-4-yl)seryl-3-(3-hexopyranosyl-2-iminoimidazolidin-4-yl)serylserylglycyl-β-methylphenylalanyl]]
MIC Staphylococcus haemolyticus (GC 4546) (Staphylococcus sp.): 4 µg/mL (≈ 3.58 µM)

From patent US8247211B2, “Glycopeptide antibiotics” (American Cyanamid Company, priority 2001, dated 2012)
